Measured values as given in patent US5279836A, “Topical use of calcitonin for the preparation of medications in senile idiopathic cataract and a pharmaeutical composition thereof” (Mediator S.R.L., priority 1991, dated 1994).
Positions of bridges follow the written chain, without caps; N, C: chain ends. Non-standard residues stand in square brackets, D forms with d. Residues, ends and D or L forms follow the SMILES beside them. Asu = N[C@@H](CCCCCC(=O)O)C(=O)O

How the values were obtained:
corneal epithelium = experiment: Systemic and local (corneal) tolerance after topical instillation of the collyrium; assay type: in vivo, rabbit; conditions: rabbits, topical collyrium 5 U.MRC; 2% fluorescein test
Procedure: After the Keratocentesis a new test of the corneal surface integrity was performed with instillation of 2% fluorescein and washing with physiological solution.

sheep lens = sheep lens in vitro, incubation; cited from earlier work

Compound | systemic phenomena of drug intolerance and local toxic phenomena (corneal epithelium) (corneal epithelium) | calcium levels in the lens (sheep lens)
CC(C)C[C@H](NC(=O)[C@H](CCCCN)NC(=O)CNC(=O)[C@H](CC(C)C)NC(=O)[C@@H](NC(=O)[C@@H]1CCCCCC(=O)N[C@@H](CO)C(=O)N[C@@H](CC(N)=O)C(=O)N[C@@H](CC(C)C)C(=O)N[C@@H](CO)C(=O)N[C@@H]([C@@H](C)O)C(=O)N1)C(C)C)C(=O)N[C@@H](CO)C(=O)N[C@@H](CCC(N)=O)C(=O)N[C@@H](CCC(=O)O)C(=O)N[C@@H](CC(C)C)C(=O)N[C@@H](Cc1c[nH]cn1)C(=O)N[C@@H](CCCCN)C(=O)N[C@@H](CC(C)C)C(=O)N[C@@H](CCC(N)=O)C(=O)N[C@H](C(=O)N[C@@H](Cc1ccc(O)cc1)C(=O)N1CCC[C@H]1C(=O)N[C@@H](CCCNC(=N)N)C(=O)N[C@H](C(=O)N[C@@H](CC(=O)O)C(=O)N[C@H](C(=O)NCC(=O)N[C@@H](C)C(=O)NCC(=O)N[C@H](C(=O)N1CCC[C@H]1C(N)=O)[C@@H](C)O)C(C)C)[C@@H](C)O)[C@@H](C)O [elcatonin] (SNLST[Asu]VLGKLSQELHKLQTYPRTDVGAGTP-NH2; lactam N-6) | No animal showed systemic phenomena of the drug intolerance nor local toxic phenomena | 
calcitonin |  | raises the calcium levels proportionally with the incubation times
